Experimental data: ChEMBL document CHEMBL1127558, “Synthesis and characterization of selective fluorescent ligands for the neurokinin NK2 receptor” (J Med Chem, 1994)
Numbered stars: 1 amine (or outer) side, 2 acyl side, 3 side chain; on linkers, the order of the positions; unused ones are H or OH. Square brackets hold non-standard residues; d marks the D form. Peptide text beside a SMILES is read from it. * marks the point of attachment. X1 = C[C@@H](C(=O)[*:2])N(c1ccc([N+](=O)[O-])c2nonc12)[*:1]; Nle = CCCC[C@H](N)C(=O)O; Bz = O=C(c1ccccc1)*

Target: T1, Substance-K receptor (Homo sapiens, UniProt P21452)
T1 sequence (P21452 whole entry): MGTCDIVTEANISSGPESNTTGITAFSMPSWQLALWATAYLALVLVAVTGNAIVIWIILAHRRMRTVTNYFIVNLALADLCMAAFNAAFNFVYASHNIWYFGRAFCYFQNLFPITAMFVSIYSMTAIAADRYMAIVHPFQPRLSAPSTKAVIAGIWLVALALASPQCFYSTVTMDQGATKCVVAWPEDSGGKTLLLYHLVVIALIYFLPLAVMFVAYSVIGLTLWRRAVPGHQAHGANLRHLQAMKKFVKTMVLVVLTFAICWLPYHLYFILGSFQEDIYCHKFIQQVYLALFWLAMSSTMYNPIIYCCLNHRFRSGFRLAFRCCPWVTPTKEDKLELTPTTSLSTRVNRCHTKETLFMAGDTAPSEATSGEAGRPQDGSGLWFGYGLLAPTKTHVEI
Assay: Binding affinity against human NK2 receptors expressed in CHO cells using [3H]GR-100679 as radioligand
Type: cell-based

Structure (SMILES): CCCC[C@H](NC(=O)[C@@H]1CCCN1C(=O)[C@H]1CCCN1C(=O)[C@H](Cc1ccccc1)NC(=O)[C@@H](Cc1c[nH]c2ccccc12)NC(=O)[C@H](C)NC(=O)[C@H](C)/N=C(/S)Nc1ccc2c(c1)C(=O)OC21c2ccc(O)cc2Oc2cc(O)ccc21)C(N)=O
- Log Ki (cho): -5.99

Structure (SMILES): CCCC[C@H](NC(=O)[C@@H]1CCCN1C(=O)[C@H]1CCCN1C(=O)[C@H](Cc1ccccc1)NC(=O)[C@@H](Cc1c[nH]c2ccccc12)NC(=O)[C@H](C)NC(=O)[C@H](CCCCNC(=S)Nc1ccc2c(c1)C(=O)OC21c2ccc(O)cc2Oc2cc(O)ccc21)NC(=O)c1ccccc1)C(N)=O
- Ki: 24.5 nM

Structure (SMILES): CCCC[C@H](NC(=O)[C@@H]1CCCN1C(=O)[C@@H]1CCCN1C(=O)[C@H](Cc1ccccc1)NC(=O)[C@H](Cc1c[nH]c2ccccc12)NC(=O)[C@H](C)NC(=O)[C@H](C)NC(=O)c1ccccc1)C(N)=O (Bz-AAWFPP[Nle]-NH2)
- Ki: 0.155 nM

Structure (SMILES): CCCC[C@H](NC(=O)[C@@H]1CCCN1C(=O)[C@@H]1CCCN1C(=O)[C@H](Cc1ccccc1)NC(=O)[C@H](Cc1c[nH]c2ccccc12)NC(=O)[C@H](C)NC(=O)[C@H](C)Nc1ccc([N+](=O)[O-])c2nonc12)C(N)=O (H-[X1]AWFPP[Nle]-NH2)
- Ki: 87.1 nM
